In this test the target is T1, S. oneidensis cytochrome c nitrite reductase (ccNiR, NrfA) (Shewanella oneidensis, UniProt Q8EAC7).
T1 sequence (Q8EAC7 28-467): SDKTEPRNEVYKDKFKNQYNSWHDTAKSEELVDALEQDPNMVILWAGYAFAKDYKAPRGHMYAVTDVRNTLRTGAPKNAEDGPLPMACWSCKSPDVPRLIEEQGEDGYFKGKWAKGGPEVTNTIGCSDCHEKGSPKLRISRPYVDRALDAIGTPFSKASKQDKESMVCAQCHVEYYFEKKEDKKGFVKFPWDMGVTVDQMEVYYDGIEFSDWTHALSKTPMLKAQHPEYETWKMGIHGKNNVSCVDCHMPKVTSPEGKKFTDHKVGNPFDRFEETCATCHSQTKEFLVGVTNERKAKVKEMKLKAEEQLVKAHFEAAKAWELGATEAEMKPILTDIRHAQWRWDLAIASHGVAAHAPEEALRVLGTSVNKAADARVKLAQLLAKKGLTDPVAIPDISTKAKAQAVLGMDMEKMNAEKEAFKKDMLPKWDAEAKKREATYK
It counts as biochemical.

The results in this text go back to paper PMC3412176 (Journal of biological inorganic chemistry : JBIC : a …, 2012).

`O=S(O)O` [sulfite] registered a Ki of about 600 µM.
